The results in this text go back to patent EP0657455A1, “Epi-epibatidine derivatives, a process and intermediates for preparing them and epi-epibatidine and medicaments containing the epi-epibatidine derivatives and/or epi-epibatidine and the use of them” (priority 1993, dated 1995).

SMILES strings stand for the structures. Like-named read-outs stand apart in the source and are kept apart here.

Data set [1] relates to NMRI male mice. As to the kind of experiment: Hot plate test in mice. The data set is classed as in vivo. Particulars: sc. As for the experimental part:
Hot plate test in mice Method
A modification of method of Eddy et al. (1953) Eddy, N. B., Leimback D.: Synthetic analgesics II. Dithienylbutenyl and dithienylbutylamines. J. Pharmacol. Exp. Ther. 107 /1953/, 385 to 393 was used. NMRI male mice (20 to 25 g body weight) were dropped on a hot plate (56.0 ± 0.5°C) and the latency time elapsed until licking the forepaws was measured. The compounds were administered subcutaneously and 15, 30, 45 and 60 minutes later the reaction time was measured again. Animals were regarded as positive if they produced at least twice 2.5-fold reaction time extension as related to their control values.

For data set [2], the system named is mice. The data set can be described thus: Acetic acid induced writhing test in mice. The data set is classed as in vivo. As to the method:
Acetic acid induced writhing test in mice Method
Groups of 12 mice weighing 20 to 25 g were treated with 0.75% (v/v) acetic acid in a volume of 20 ml/kg administered intraperitoneally according to the method of Koster, R., Anderson, M., de Beer, E. J.: Acetic acid for analgesic screening, Fed. Proc. 18 [1959], 412. Between 5 and 10 minutes after the administration of acetic acid the total number of the typical "writhing" reactions was counted and expressed as percent inhibition compared to the concurrent controls. The test compounds were applied subcutaneously partly with a pretreatment period of 30 min. and partly without such. Statistical evaluation was performed by Student's t test and ID₅₀ values were determined by plotting the log-dose versus percentage response as compared to vehicle-treated animals. 10 mg/kg s.c. 17-(allyl)-4,5α-(epoxy)-3,14-di-(hydroxy)-morphinan-6-one {Naloxone} was administered 15 minutes before drug treatment.

In data set [3] the test system is mice. As to conditions: mouse, in vivo, sc, 5 mg/kg.
Setting [4] is: Mus musculus, hot plate 56.0 ± 0.5°C, subcutaneous, reaction time at 15, 30, 45 and 60 minutes, positive = at least twice 2.5-fold reaction time extension, read-out: ED50.

As to `Clc1ccc([C@H]2C[C@H]3CC[C@@H]2N3)c(Cl)c1` (racemic) [Example 42, (±)-endo-2β-[1',3'-Di-(chloro)-phen-4'-yl]-7α-azabicyclo[2.2.1]heptane], the ED50 in data set [1] (setting [4]) is 1.8 mg/kg.
The same measure, in the same setting: to `c1cncc([C@H]2C[C@H]3CC[C@@H]2N3)c1` (racemic) [Example 33, (±)-endo-2β-[Pyrid-3'-yl]-7α-azabicyclo[2.2.1]heptane] belongs around 10 mg/kg; to `COc1ccc([C@H]2C[C@H]3CC[C@@H]2N3)c(OC)c1` (racemic) [Example 48, (±)-endo-2β-[1',3'-Di-(methoxy)-phen-4'-yl]-7α-azabicyclo[2.2.1]heptane], 2.9 mg/kg.
Turning to `Fc1ccc([C@H]2C[C@H]3CC[C@@H]2N3)cc1` (racemic) [Example 12, (±)-endo-2β-[1'-(Fluoro)-phen-4'-yl]-7α-azabicyclo[2.2.1]heptane], the ED50 in data set [1] (setting [4]) was determined as 2.1 mg/kg.
Turning to `COc1ccc([C@H]2C[C@H]3CC[C@@H]2N3)cn1` (racemic) [Example 26, (±)-endo-2β-[6'-(Methoxy)-pyrid-3'-yl]-7α-azabicyclo[2.2.1]heptane], in data set [1] (setting [4]), the ED50 came out at 3.1 mg/kg.
Consider `Clc1ccc([C@H]2C[C@H]3CC[C@@H]2N3)cn1` (racemic) [Example 6, Epi-epibatidine], for which, in data set [1] (mouse, in vivo), the ED50 was 0.7 mg/kg s.c; the “analgesic potency, times stronger than that of codeine” value stood at 13 times; the “analgesic potency, times stronger than that of morphine” value is given as 4 times. Further, in data set [2] (mouse, in vivo), the “ID50 Pretreatment with 10 mg/kg naloxone s.c.” value (“ID50 Pretreatment” below) worked out at 3.2 mg/kg s.c, the “ID50 Without pretreatment” value was 2.6 mg/kg s.c and the “antagonism of the antinociception by naloxone” value was “inactive”. Also, the lethality in mice entry in data set [3] was “does not destroy mice”.
As for `Clc1ccc([C@H]2C[C@H]3CC[C@@H]2N3)cc1` (racemic) [Example 19, (±)-endo-2β-[1'-(Chloro)-phen-4'-yl]-7α-azabicyclo[2.2.1]heptane], the ED50 in data set [1] (setting [4]) was found to be 6.3 mg/kg.
As to `COc1ccc2c3c1O[C@H]1[C@@H](O)C=C[C@H]4[C@@H](C2)N(C)CC[C@@]341.Cl` [Reference substance B, Codeine-HCl], the ED50 in data set [1] (setting [4]) was determined as 9.4 mg/kg; in data set [2] (Mus musculus, sc, 0.75% (v/v) acetic acid i.p., writhing counted between 5 and 10 minutes, no naloxone, read-out: ID50 Without pretreatment) it was 9.9 mg/kg. The “ID50 Pretreatment” value in data set [2] (0.75% (v/v) acetic acid i.p., naloxone 10 mg/kg s.c. 15 minutes before drug treatment) is reported as 45.4 mg/kg s.c. Moreover, the “increase of ID50 value in antinociception after naloxone pretreatment” value in data set [2] (naloxone 10 mg/kg s.c. for 15 minutes) is recorded as around 5 fold.
As to `CN1CC[C@]23c4c5ccc(O)c4O[C@H]2[C@@H](O)C=C[C@H]3[C@H]1C5.Cl` [Reference substance A, Morphine-HCl], in data set [2] (mouse, in vivo), the “ID50 Pretreatment” value was 46.8 mg/kg s.c, the “ID50 Without pretreatment” value came out at 0.6 mg/kg s.c and the “increase of ID50 value in antinociception after naloxone pretreatment” value is given as “about 80 fold”.
With `CCOc1ccc([C@H]2C[C@H]3CC[C@@H]2N3)cn1` (racemic) [Example 49, (±)-2β-[6'-(Ethoxy)-pyrid-3'-yl]-7α-azabicyclo[2.2.1]heptane], the ED50 in data set [1] (setting [4]) is 3.5 mg/kg.
